Test results reported in patent publication US6358928B1, “Peptidyl sulfonyl imidazolides as selective inhibitors of serine proteases” (Enzyme Systems Products, priority 1999, dated 2002).
Blank lines part the entries; values can stand above or below the molecule they belong to.

Tests used:
[1] = target: T1, human leukocyte elastase (Homo sapiens, UniProt P08246); test: Inhibition of human leukocyte elastase (kobs/[I], spectrophotometric, MeOSuc-Ala-Ala-Pro-Val-AMC substrate); type: biochemical
T1 sequence (P08246 30-267): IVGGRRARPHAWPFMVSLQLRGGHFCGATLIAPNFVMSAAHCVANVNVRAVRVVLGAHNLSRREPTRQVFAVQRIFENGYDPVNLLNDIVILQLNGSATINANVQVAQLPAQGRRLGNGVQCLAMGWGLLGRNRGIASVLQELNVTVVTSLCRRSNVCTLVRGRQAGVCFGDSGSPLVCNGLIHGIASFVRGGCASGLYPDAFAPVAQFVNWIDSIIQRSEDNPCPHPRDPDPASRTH
Procedure: (§1) Z-Ala-Ala-AlaCH2SO2-Im, prepared as in Example 1, was assayed for serine protease inhibition activity against human leukocyte elastase. Various concentrations of inhibitor were rapidly mixed with fixed aliquots of enzyme and allowed to react for at least two half-lives. Aliquots of the treated enzyme were then assayed spectrophotometrically for protease activity using MeOSuc-Ala-Ala-Pro-Val-AMC as the substrate to determine kobs/[I]. […] 359-361 (1975), incorporated herein by reference.

[2] = target: T2, human cathepsin G (Homo sapiens, UniProt P08311); test: Inhibition of human cathepsin G, assayed as in Example 2; type: biochemical; details: present-tense example
T2 sequence (P08311 21-244): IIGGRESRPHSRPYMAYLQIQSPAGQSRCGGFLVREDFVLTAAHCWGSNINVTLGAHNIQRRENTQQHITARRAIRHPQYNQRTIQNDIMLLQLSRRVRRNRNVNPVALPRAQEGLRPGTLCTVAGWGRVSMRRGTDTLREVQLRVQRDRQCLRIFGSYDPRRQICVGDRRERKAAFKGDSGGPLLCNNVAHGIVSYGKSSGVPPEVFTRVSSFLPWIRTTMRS
Procedure: as §1
MeOSuc-Ala-Ala-Pro-ValCH2SO2-Im is prepared as in example 3 and assayed as in Example 2 for inhibition of human leukocyte elastase and human cathepsin G with the corresponding peptidyl chloromethane, MeOSuc-Gly-Leu-PheCH2SO2-Im, and Z-Ala-Ala-AlaCH2SO2-Im as comparator inhibitors.
Z-Gly-Leu-PheCH2SO2-Im is prepared as in Example 5, and is assayed as in Example 2 for inhibition of human cathepsin G and human leukocyte elastase with the corresponding peptidyl chloromethane, MeOSuc-Ala-Ala-Pro-ValCH2SO2-Im, and Z-Ala-Ala-AlaCH2SO2-Im as comparator inhibitors.

[3] = enzyme concentration 200 μM, substrate 100 μM, inhibitor 200 μM

Molecule: C[C@H](NC(=O)OCc1ccccc1)C(=O)N[C@@H](C)C(=O)N[C@@H](C)CS(=O)(=O)n1ccnc1 [Z-Ala-Ala-AlaCH2SO2-Im]
times more potent than the corresponding peptidyl chloromethane inhibitor ([1]; comparator value as reported in Tuhy and Powers, FEBS Letters 50, 359-361 (1975)): 45 times
kobs [1, 3]: 0.0025 s⁻¹
kobs/[I] [1, 3]: 12.7 M⁻¹ s⁻¹

kobs/[I] against human leukocyte elastase compared with MeOSuc-Ala-Ala-Pro-ValCH2SO2-Im ([1]; present-tense example): significantly lower
kobs/[I] against human cathepsin G compared with comparator inhibitors ([2]; comparators: corresponding peptidyl chloromethane, MeOSuc-Ala-Ala-Pro-ValCH2SO2-Im, Z-Ala-Ala-AlaCH2SO2-Im): significantly higher
Molecule: CC(C)C[C@H](NC(=O)CNC(=O)OCc1ccccc1)C(=O)N[C@@H](Cc1ccccc1)CS(=O)(=O)n1ccnc1 [Z-Gly-Leu-PheCH2SO2-Im]

kobs/[I] against human leukocyte elastase compared with comparator inhibitors ([1]; comparators: corresponding peptidyl chloromethane, MeOSuc-Gly-Leu-PheCH2SO2-Im, Z-Ala-Ala-AlaCH2SO2-Im, present-tense example): significantly higher
kobs/[I] against human cathepsin G compared with MeOSuc-Gly-Leu-PheCH2SO2-Im [2]: significantly lower
Molecule: MeOSuc-Ala-Ala-Pro-ValCH2SO2-Im
